According to patent publication US12011433B2 (UNIVERSITÁ DEGLI STUDI DI BARI “ALDO MORO”, priority 2016, dated 2024):
Like-named read-outs stand apart in the source and are kept apart here.

How the values were obtained:
COX-2 [1] = molecular target: COX-2 (Homo sapiens, UniProt P35354); assay: colorimetric COX Inhibitor screening Assay (peroxidase component, oxidized TMPD at 590 nm); format: biochemical; conditions: for inhibition at 50 µM: the highest concentration tested; for IC50: human cyclooxygenase
Experimental: Human cyclooxygenase inhibitory activity was determined by a colorimetric COX Inhibitor screening Assay which measures the peroxidase component of the cyclooxygenases, monitoring the appearance of oxidized N,N,N′,N′-tetramethyl-p-phenylenediamine (TMPD) at 590 nm.

[2] = Caco-2 monolayer efflux assay, Apparent Permeability (Papp), with or without GLUT-1 inhibitor phloretin; format: in vitro ADME, Human; conditions: human, compound alone
Experimental: (§1) In a monolayer efflux assay, the Apparent Permeability (Papp) in both basolateral to apical [Papp(B→A)] and apical to basolateral [Papp(A→B)] directions was determined for each compound (FIG. 2). Human colonic adenocarcinoma cell line (Caco-2) presents a facilitated transport system at the apical and basolateral surface. Caco-2 cells express high levels of GLUT-1 that are localized to the basolateral membrane and transport glucose to the serosal side.
(§2) The Papp(B→A) flux of each compound alone or in the presence of phloretin, a GLUT-1 inhibitor, has been determined. Since GLUT-1 is express in the basolateral compartment a high B→A flux means that the transport is GLUT-1 mediated because B→A flux represents the active transport.
(§3) A→B flux, which represents the passive transport, has also been determined for each compound (Table 2).

GLUT-1 = assay: as above; format: in vitro ADME, Human; conditions: human
Experimental: as §1, §2, §3

Caco-2 cells = assay: as above; format: in vitro ADME, Human; conditions: for Papp B → A, Phloretin: in the presence of 100 mM Phloretin
Experimental: as §1, §2, §3

BV2 microglial cells = assay: BV2 microglial cell viability, MTT reduction assay; format: cell-based; conditions: 24 h, P6 0.5 and 1 μM, mofezolac 0.1 and 0.5 μM, alone or with LPS
Experimental: (§4) Cells were then incubated for different times at 37° C. with LPS, as pro-inflammatory stimulus. Experiments included cells grown in medium alone (control).
Cell viability of microglial cells was quantified using the MTT reduction assay. The cells (8×10^3/well) were grown in 96-well plates (Becton Dickinson Labware) in complete medium and treated with different concentration of COX inhibitors, in presence or absence of LPS. Untreated cells were used as a control. A PBS 1× solution of MTT (5 mg/mL) was prepared and added to the cell medium at a final concentration of 0.5 mg/mL. Cells were incubated for 4 h at 37° C. and 5% CO2 to allow the MTT metabolism. The formazan crystals formed (from MTT) into the cells were solubilized with DMSO (Sigma-Aldrich). The levels of MTT formazan were determined measuring the optical density at λ=560 nm and subtracting the background (λ=670 nm) with a Victor Multiplate Reader (Wallac). Optical density was directly correlated to cell quantity.

COX-2 [3] = molecular target: COX-2 (Mus musculus (Mouse), UniProt Q05769); assay: COX-2 expression in LPS-treated BV2 microglial cells, western blotting; format: cell-based; conditions: LPS-stimulated BV2 cells
Experimental: as §4
(§5) The tissue and cell culture lysates were vortexed for 15-20 s and, then, centrifuged at 12,800×g for 20 min. The protein concentration in the supernatant was spectrophotometrically determined by Bradford's protein assay (Bradford, 1976). Protein samples were diluted with sample buffer (0.5 M Tris-HCl pH=6.8, 10% glycerol, 10% (w/v) SDS, 5% 2-mercaptoethanol, 0.05% (w/v) bromophenol blue) and then boiled for 3 min. Proteins (25 μg/lane) and prestained standards (BioRad Laboratories, Hercules, CA, USA) were loaded on 7% or 12% SDS precast polyacrylamide gels (BioRad Laboratories).
After electrophoresis, the resolved proteins were transferred from the gel to nitrocellulose membranes. A blotting buffer [20 mMTris/150 mM glycine, pH=8.0, 20% (v/v) methanol] was used for gel and membrane saturation and blotting. […]

COX-1 = COX-1 (Mus musculus (Mouse), UniProt P22437); assay: COX-1 expression in LPS-treated BV2 microglial cells, western blotting; format: cell-based; conditions: for COX-1 expression reduction: LPS-activated BV2 cells
Experimental: as §4, §5
After electrophoresis, the resolved proteins were transferred from the gel to nitrocellulose membranes. A blotting buffer [20 mMTris/150 mM glycine, pH=8.0, 20% (v/v) methanol] was used for gel and membrane saturation and blotting. Then, membranes were incubated in the dark with 1 μg/mL mouse monoclonal antibody (MoAb) anti-COX-1 and rabbit polyclonal Ab anti-COX-2 (1:1000) (both from AbCam, Cambridge, UK), rabbit polyclonal Ab anti p-IkB-α (1:200), mouse polyclonal Ab anti β-actin (1:500) (all from Santa Cruz Biotechnology), mouse MoAb anti-glial fibrillary acidic protein (GFAP) (1:200) and mouse mAb anti-ionized calcium-binding adapter molecule-1 (Iba-1) (1:200) (both from Merck Millipore) overnight at 4° C. The membranes were washed with 0.1% Tween 20-PBS (for 20 min, 3 times) and then incubated with the secondary antibody diluted 1:2000 for 60 min. Bands were visualized by chemiluminescence detection (Invitrogen, Milan, Italy). The β-actin level was used as a protein loading control. For tissue analysis, obtained bands were normalized to the level of β-actin performed for each cerebral area tested. For cell cultures the bands were normalized to the β-actin level in each experimental condition.

PGE2 = PGE2 release in LPS-stimulated BV2 microglial cells, competitive binding immunoassay; format: cell-based; conditions: for PGE2 release (ng/ml) at 48 h: LPS-stimulated BV2 cells; for PGE2 production reduction: LPS-treated BV2 cells
Experimental: Microglial cells were cultured in 6-well plates at a density of 3×10^6 cells/well. […] The cultures were maintained at 37° C. for 24 and 48 h in a humidified air containing a 5% CO2. PGE2 levels were determined in the supernatant using a competitive binding immunoassay (Cayman Chemical, Ann Arbor, MI, USA) following the manufacturer's instructions. Unstimulated cells were included as a control. PGE2 amount determination in the brain was performed in the tissue extracts, according to the manufacturer's instructions. The optical density was measured at λ=405-420 nm with precision microplate reader and the amount of PGE2 (ng/mL) was calculated using a PGE2 standard curve.

COX-2 (Homo sapiens, UniProt P35354), sequence (P35354 18-604 limits assumed): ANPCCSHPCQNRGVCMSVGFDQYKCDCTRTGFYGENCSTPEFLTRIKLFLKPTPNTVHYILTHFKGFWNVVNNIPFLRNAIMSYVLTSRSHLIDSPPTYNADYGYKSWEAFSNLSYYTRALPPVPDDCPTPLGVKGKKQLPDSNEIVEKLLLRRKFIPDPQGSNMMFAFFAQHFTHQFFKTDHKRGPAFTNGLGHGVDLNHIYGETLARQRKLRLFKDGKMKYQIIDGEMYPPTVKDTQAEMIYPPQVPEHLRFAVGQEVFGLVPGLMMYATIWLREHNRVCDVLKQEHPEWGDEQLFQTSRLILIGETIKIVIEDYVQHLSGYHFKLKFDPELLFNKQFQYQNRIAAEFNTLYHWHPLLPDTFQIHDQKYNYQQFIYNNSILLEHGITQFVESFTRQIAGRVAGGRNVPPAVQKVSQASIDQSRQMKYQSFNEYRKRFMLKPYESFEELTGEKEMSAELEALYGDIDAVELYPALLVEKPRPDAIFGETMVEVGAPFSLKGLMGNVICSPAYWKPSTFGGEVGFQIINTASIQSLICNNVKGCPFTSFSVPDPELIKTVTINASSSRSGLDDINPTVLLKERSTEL

COc1ccc(-c2noc(CC(=O)NCCCCC(=O)OC[C@H]3OC(O)[C@H](O)[C@@H](O)[C@H]3O)c2-c2ccc(OC)cc2)cc1 (mixture of isomers) [GALMOF5, 6-O-(5-{2-[3,4-bis(4-methoxyphenyl)isoxazol-5-yl]acetamido}pentanoyl)-D-galactopyranose]
inhibition at 50 µM (COX-2 [1]): 24%
IC50 (COX-2 [1]): > 50000 nM
Papp A→B [2]: 32.1 ×10⁻⁶ cm/s
Papp B→A [2]: 74.9 ×10⁻⁶ cm/s
Papp A→B (GLUT-1; with phloretin 100 mM (GLUT-1 inhibitor), in the presence of 100 mM Phloretin, read-out: Papp A → B, Phloretin): 32.1 ×10⁻⁶ cm/s
Papp B→A (GLUT-1; with phloretin 100 mM (GLUT-1 inhibitor), in the presence of 100 mM Phloretin, read-out: Papp B → A, Phloretin): 47.2 ×10⁻⁶ cm/s
Papp B → A, Phloretin (Caco-2 cells): 47.2 ×10⁻⁶ cm/s

COc1ccc(-c2noc(CC(=O)NCCNC(=O)Cc3onc(-c4ccc(OC)cc4)c3-c3ccc(OC)cc3)c2-c2ccc(OC)cc2)cc1 [Compound 10, N,N′-(Ethane-1,2-di-yl)-bis-(2-[3,4-bis (4-methoxyphenyl)isoxazol-5-yl]acetamide)]
melting point: 145 to 148 °C

COc1ccc(-c2noc(CC(=O)NCCCCNC(=O)Cc3onc(-c4ccc(OC)cc4)c3-c3ccc(OC)cc3)c2-c2ccc(OC)cc2)cc1 [Compound 11, N-(4-(2-(3,4-Bis(4-methoxyphenyl)isoxazol-5-yl)acetamido)butyl)-3,4-bis(4-methoxyphenyl)isoxazole-5-carboxyamide]
melting point: 163 to 166 °C

CCC(CCCNC(=O)Cc1onc(-c2ccc(OC)cc2)c1-c1ccc(OC)cc1)NC(=O)Cc1onc(-c2ccc(OC)cc2)c1-c1ccc(OC)cc1 (stereo not shown) [Compound 12, N-(4-(2-(3,4-Bis(4-methoxyphenyl)isoxazol-5-yl)acetamido)hexyl)-3,4-bis(4-methoxyphenyl)isoxazole-5-carboxyamide]
melting point: 159 to 161 °C

COc1ccc(-c2noc(CC(=O)Nc3ccc(-c4ccc(NC(=O)Cc5onc(-c6ccc(OC)cc6)c5-c5ccc(OC)cc5)cc4)cc3)c2-c2ccc(OC)cc2)cc1 [Compound 16, N,N′-(Biphenyl-4,4′-di-yl)bis(2-(3,4-bis(4-methoxyphenyl)isoxazol-5-yl)acetamide)]
melting point: 240 to 243 °C

Cc1onc(-c2ccc(Cl)o2)c1-c1ccccc1 [Compound P6, 3-(5-chlorofuran-2-yl)-5-methyl-4-phenylisoxazole]
cell toxicity (BV2 microglial cells): No cell toxicity
COX-2 protein levels (COX-2 [3]): unaffected
COX-1 expression levels (COX-1; BV2 cells, 48 h of incubation with LPS, 1 h pre-treated): significantly reduced
COX-1 expression reduction (COX-1; 0.5 μM): 67%
COX-1 expression reduction (COX-1; 1.0 μM): 79%
PGE2 release (ng/ml) at 48 h (PGE2; 0.5 μM inhibitor + LPS): 0.21 ng/mL
PGE2 release (ng/ml) at 48 h (PGE2; 1 μM inhibitor + LPS): 0.12 ng/mL
PGE2 production reduction (PGE2; at 0.5 μM as printed in the text): 78%
PGE2 production reduction (PGE2; at 1 μM as printed in the text): 88%

COc1ccc(-c2noc(CC(=O)Nc3ccc(NC(=O)Cc4onc(-c5ccc(OC)cc5)c4-c4ccc(OC)cc4)cc3)c2-c2ccc(OC)cc2)cc1 [Compound 14]
melting point: 178 to 182 °C

COc1ccc(-c2noc(CC(=O)NCCCCCCCCCCC(=O)OCC3OC(O)C(O)C(O)C3O)c2-c2ccc(OC)cc2)cc1 [GALMOF11, [(2S,3R,4S,6R)-3,4,5,6-tetrahydroxytetrahydro-2H-pyran-2-yl-]mhetyl 11-{2-[3,4-bis(4-methoxyphenyl)isoxazol-5-yl-]acetamido}undecanoate]
inhibition at 50 µM (COX-2 [1]): 64%
IC50 (COX-2 [1]): 270 nM
Papp A→B (GLUT-1; compound alone, read-out: Papp A → B): 29.2 ×10⁻⁶ cm/s
Papp B→A (GLUT-1; compound alone, read-out: Papp B → A): 77.2 ×10⁻⁶ cm/s
Papp A→B (GLUT-1; with phloretin (GLUT-1 inhibitor), in Phloretin, read-out: Papp A → B, Phloretin): 29.2 ×10⁻⁶ cm/s
Papp B→A (GLUT-1; with phloretin (GLUT-1 inhibitor), in Phloretin, read-out: Papp B → A, Phloretin): 62.2 ×10⁻⁶ cm/s
Papp B→A (Caco-2 cells; compound alone): 77.2 ×10⁻⁶ cm/s
Papp B → A, Phloretin (Caco-2 cells): 62.2 ×10⁻⁶ cm/s
reduction of the basolateral to apical flux (Papp B→A) in the presence of phloretin (Caco-2 cells; phloretin vs alone): 20%

CCCCCCCCC(CCCNC(=O)Cc1onc(-c2ccc(OC)cc2)c1-c1ccc(OC)cc1)NC(=O)Cc1onc(-c2ccc(OC)cc2)c1-c1ccc(OC)cc1 (stereo not shown) [Compound 13, N-(4-(2-(3,4-Bis(4-methoxyphenyl)isoxazol-5-yl)acetamido)dodecyl)-3,4-bis(4-methoxyphenyl)isoxazole-5-carboxyamide]
melting point: 134 to 138 °C
